Our source for the TGI and GI50 values is PubChem BioAssay (NCI).

“And” between values parts separate entries of the source, which are not always exact repeats. Equal values may be shown once.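 The compound was tested at five concentrations on cells cultured in 96-well plates, with a 48-hour exposure period. Abbreviation: GI50, concentration required for 50% inhibition of growth. The concentration for full growth arrest is given as TGI.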

Test systems include A549 NSCLC; CCRF-CEM leukemia; HOP-62 NSCLC; M19-MEL melanoma; OVCAR-3 ovarian; SF-268 CNS; SW-620 colon; UO-31 renal; LXFL 529 NSCLC; OVCAR-4 ovarian.
What all share (test): NCI-60 cell line screen, 48 h

For `CC(=O)Nc1ccc(/C=C/C(=O)c2sc(C(N)=S)nc2C)cc1`, the TGI with A549 NSCLC, in the assay on CCRF-CEM leukemia, in the assay on HOP-62 NSCLC, in the assay with M19-MEL melanoma, with OVCAR-3 ovarian and in the assay on SF-268 CNS was above 100 µM throughout. The TGI in the assay with SW-620 colon and with UO-31 renal was above 100 µM throughout.
Regarding `Nc1nc(N)c(-c2ccc(Cl)cc2)c(CCC(=O)Nc2cccc(C(F)(F)F)c2)n1`, the TGI in the assay on A549 NSCLC, in the assay with CCRF-CEM leukemia, with HOP-62 NSCLC, in the assay on LXFL 529 NSCLC, with OVCAR-3 ovarian and in the assay on OVCAR-4 ovarian was above 100 µM in each case. In addition, the TGI in the assay with SF-268 CNS, in the assay with SW-620 colon and in the assay with UO-31 renal was above 100 µM each time.
With `Nc1ccn([C@@H]2C=C(CO)[C@@H](O)[C@H]2O)c(=O)n1`, the TGI in the assay with CCRF-CEM leukemia is 294 µM and > 625 µM; in the assay with M19-MEL melanoma, 244 µM and > 625 µM; in the assay on OVCAR-3 ovarian, 500 µM and > 625 µM; in the assay with SF-268 CNS it was 500 µM and > 625 µM; in the assay with SW-620 colon, 303 µM and > 625 µM. For the same compound, the GI50 is 0.0593 µM and 0.0749 µM in the assay on HOP-62 NSCLC; 0.275 µM with M19-MEL melanoma.
Regarding `CC1C(=O)N(C)C2(CO)C(=O)O[C@H](C)C12O` (stereo partly specified), the TGI with A549 NSCLC, with HOP-62 NSCLC, in the assay with M19-MEL melanoma, in the assay with OVCAR-3 ovarian, in the assay with OVCAR-4 ovarian and with SF-268 CNS was above 100 µM in each case. Moreover, in the assay on UO-31 renal, the TGI is above 100 µM.
For the compound `O=C(C=Nc1ccccc1C(=O)[O-])c1cccs1.O=C(C=Nc1ccccc1C(=O)[O-])c1cccs1.[Cu+2]`, the TGI in the assay on A549 NSCLC is above 100 µM; in the assay on CCRF-CEM leukemia, above 10 µM; in the assay with HOP-62 NSCLC it was above 100 µM; with M19-MEL melanoma, above 100 µM; in the assay on OVCAR-3 ovarian, above 100 µM; in the assay on SF-268 CNS, above 100 µM. Moreover, the TGI with SW-620 colon and in the assay on UO-31 renal was above 100 µM in each case. In addition, the GI50 in the assay on M19-MEL melanoma is 39.7 µM.
As to `COC(=O)Nc1nc2ccc(Oc3ccc(NC(=O)Nc4cccc(Cl)c4)cc3)cc2[nH]1`, the GI50 in the assay with A549 NSCLC is 2.02 µM; in the assay with CCRF-CEM leukemia it was 0.838 µM; in the assay with HOP-62 NSCLC, 0.9 µM; with OVCAR-3 ovarian, 0.768 µM; in the assay on OVCAR-4 ovarian, 3.05 µM; with SF-268 CNS it was 2.43 µM. The GI50 is 0.975 µM in the assay with SW-620 colon and 6.93 µM in the assay with UO-31 renal. Moreover, the TGI was 8.87 µM in the assay with A549 NSCLC; above 15 µM in the assay on CCRF-CEM leukemia; 4.73 µM in the assay with HOP-62 NSCLC; 2.23 µM in the assay on OVCAR-3 ovarian; 8.19 µM in the assay with OVCAR-4 ovarian; 15.3 µM with SF-268 CNS. The figures for the TGI with SW-620 colon and in the assay on UO-31 renal were 9.85 µM and above 21.4 µM, respectively.
Take `CC/C(=C(\CC)c1ccc(OCCN(CC)CC)cc1)c1ccc(OCCN(CC)CC)cc1`: the GI50 in the assay with A549 NSCLC was 3.81 µM; with CCRF-CEM leukemia, 2.51 µM; with HOP-62 NSCLC, 1.73 µM; with OVCAR-3 ovarian, 3.45 µM; with OVCAR-4 ovarian, 3.13 µM; with SF-268 CNS it was 5.43 µM. Moreover, the GI50 in the assay with SW-620 colon was 2.33 µM; in the assay with UO-31 renal, 0.996 µM. For the same compound, the TGI with A549 NSCLC came to 15.5 µM; in the assay on CCRF-CEM leukemia it was 25 µM; with HOP-62 NSCLC it was 4.76 µM; in the assay with OVCAR-3 ovarian, 16.1 µM; with OVCAR-4 ovarian, 12.3 µM; in the assay on SF-268 CNS it was 18.3 µM. In addition, the TGI was determined as 7.79 µM in the assay on SW-620 colon and 11.3 µM in the assay on UO-31 renal.
For `C/C(=C\c1ccn(-c2ccc(N)cc2)n1)[C@@H]1C[C@@H]2O[C@]2(C)CCC[C@H](C)[C@H](O)[C@@H](C)C(=O)C(C)(C)[C@@H](O)CC(=O)O1`, the GI50 in the assay with A549 NSCLC was 0.0348 µM; in the assay with CCRF-CEM leukemia it was 0.0338 µM; in the assay on HOP-62 NSCLC, 0.0682 µM; with OVCAR-3 ovarian, 0.0175 µM; in the assay with OVCAR-4 ovarian, 0.401 µM; in the assay with SF-268 CNS, 0.118 µM. The GI50 in the assay on SW-620 colon is 0.0248 µM; in the assay with UO-31 renal, 0.251 µM. For the same compound, the TGI is above 50 µM with A549 NSCLC; above 50 µM in the assay with CCRF-CEM leukemia; above 50 µM in the assay with HOP-62 NSCLC; 1.6 µM with OVCAR-3 ovarian; above 50 µM in the assay with OVCAR-4 ovarian; above 50 µM with SF-268 CNS. Further, the TGI with SW-620 colon and in the assay on UO-31 renal was above 50 µM each time.
For `CCCC(=O)NNc1[nH]c(-c2ccc(OC)cc2)cc1C(=O)OCC`, the GI50 is 21.5 µM with A549 NSCLC; 2.82 µM in the assay on CCRF-CEM leukemia; above 100 µM in the assay on HOP-62 NSCLC; 15.5 µM with OVCAR-3 ovarian; 17.1 µM in the assay on OVCAR-4 ovarian; 14.6 µM with SF-268 CNS. Also, the GI50 with SW-620 colon is 3.54 µM; in the assay on UO-31 renal, 19.9 µM. For the same compound, the TGI in the assay on A549 NSCLC was 44.8 µM; with CCRF-CEM leukemia it was above 100 µM; with HOP-62 NSCLC it was above 100 µM; in the assay on OVCAR-3 ovarian, 31.1 µM; with OVCAR-4 ovarian, 32.3 µM; with SF-268 CNS it was 31 µM. In addition, the TGI in the assay on SW-620 colon is 12.6 µM; in the assay with UO-31 renal, 37.8 µM.
`O=C(O)CCC1CCC(c2cc(F)ccc2F)(S(=O)(=O)c2ccc(Cl)cc2)CC1` (stereo unspecified): the GI50 is 44.4 µM and > 100 µM with A549 NSCLC; 29 µM and > 100 µM in the assay on CCRF-CEM leukemia; 30.5 µM and > 100 µM with HOP-62 NSCLC; 22.7 µM and > 100 µM with OVCAR-3 ovarian; 30.5 µM and > 65.6 µM in the assay on OVCAR-4 ovarian; 48.3 µM and > 100 µM in the assay with SF-268 CNS. In addition, the GI50 with SW-620 colon was 32.2 µM and > 100 µM; in the assay with UO-31 renal, 22.7 µM and > 100 µM. Also, the TGI in the assay on A549 NSCLC was above 100 µM; in the assay on CCRF-CEM leukemia it was above 100 µM; in the assay with HOP-62 NSCLC, above 100 µM; with OVCAR-3 ovarian, 63.5 µM and > 100 µM; with OVCAR-4 ovarian, above 100 µM; in the assay with SF-268 CNS, above 100 µM. The TGI in the assay on SW-620 colon and in the assay on UO-31 renal was above 100 µM in each case.
As to `Cn1cc(C2=C(c3c4n(c5ccccc35)CCC(CN)CC4)C(=O)NC2=O)c2ccccc21` (stereo unspecified), the GI50 with A549 NSCLC is 4.14 µM; with CCRF-CEM leukemia it was 5.19 µM; with HOP-62 NSCLC it was 3.93 µM; in the assay on OVCAR-3 ovarian, 4.31 µM; with OVCAR-4 ovarian, 1.96 µM; with SF-268 CNS, 4.02 µM. The GI50 is 3.87 µM with SW-620 colon and 4.07 µM in the assay on UO-31 renal. The TGI in the assay with A549 NSCLC stood at 9.24 µM; in the assay on CCRF-CEM leukemia it was 15.6 µM; with HOP-62 NSCLC it was 8.22 µM; in the assay on OVCAR-3 ovarian, 8.75 µM; in the assay on OVCAR-4 ovarian, 7.51 µM; in the assay on SF-268 CNS, 7.7 µM. Moreover, the TGI was 7.9 µM in the assay on SW-620 colon and 7.91 µM in the assay on UO-31 renal.
